Experimental data published in patent US11773084B1, “4-arylamino-2-(6-indolylamino)pyrimidine compounds as antibacterial agents” (KING FAISAL UNIVERSITY, priority 2023, dated 2023).
pIC50: −log10 of the molar value. ≈ marks a conversion by molar mass, not a printed value. Read-outs that look alike come from different tables or passages of the source.

Legend:
DNA gyrase from E. coli = biological target: T1, DNA gyrase from E. coli (Escherichia coli, UniProt P0AES4+P0AES6); assay: E. coli DNA gyrase inhibition (Inspiralis assay); format: biochemical
T1 construct: purchased Inspiralis
Procedure: First, the plates were rehydrated with buffer (20 mM Tris-HCl with pH 7.6, 0.01% w/v BSA, 0.05% v/v Tween 20, 137 mM NaCl) and the biotinylated oligonucleotide was then immobilized. After washing off the unbound oligonucleotide, the enzyme test was performed. […] Reaction solutions were incubated at 37° C. for 30 min. After that, the TF buffer (50 mM NaOAc with pH 5.0, 50 mM NaCl and 50 mM MgCl2) was added to terminate the enzymatic reaction. After additional incubation for 30 min at rt, during which biotinoligonucleotide-plasmid triplex was formed, the unbound plasmid was washed off using TF buffer and SybrGOLD in T10 buffer (10 mM Tris HCl with pH 8.0 and 1 mM EDTA) was added. The fluorescence was measured with a microplate reader (BioTek Synergy H4, excitation: 485 nm, emission: 535 nm). […] GraphPad Prism software was used to calculate the IC50 values. The result is given as the average value of three independent measurements.

[1] = tested on: Klebsiella pneumonia MTCC 618; assay: In vitro antibacterial activity (CLSI M07-A10 dilution MIC); format: cell-based; conditions: Klebsiella pneumoniae, MTCC618
[2] = tested on: Staphylococcus aureus ATCC 29213; assay: as above; format: cell-based; conditions: ATCC29213
[3] = tested on: Staphylococcus aureus ATCC BAA-1556 (MERSA resistant); assay: as above; format: cell-based; conditions: ATCCBAA1556
[4] = tested on: Mycobacterium tuberculosis H37Rv strain; assay: Anti-tubercular alamar blue microplate MIC assay; format: cell-based; conditions: seven days 37° C.
[5] = tested on: Staphylococcus epidermidis; assay: In vitro antibacterial activity (CLSI M07-A10 dilution MIC); format: cell-based
[6] = tested on: Enterococcus faecium ATCC 51559 (VRE resistant); assay: as above; format: cell-based
[7] = tested on: Escherichia coli MTCC 443; assay: as above; format: cell-based
[8] = tested on: Enterococcus faecium ATCC 35667; assay: as above; format: cell-based; conditions: ATCC35667
[9] = tested on: Bacillus subtilis MTCC 441; assay: as above; format: cell-based; conditions: MTCC441
[10] = Escherichia coli MTCC 443 + PABN

T1 sequence (P0AES4 whole entry, one chain of several): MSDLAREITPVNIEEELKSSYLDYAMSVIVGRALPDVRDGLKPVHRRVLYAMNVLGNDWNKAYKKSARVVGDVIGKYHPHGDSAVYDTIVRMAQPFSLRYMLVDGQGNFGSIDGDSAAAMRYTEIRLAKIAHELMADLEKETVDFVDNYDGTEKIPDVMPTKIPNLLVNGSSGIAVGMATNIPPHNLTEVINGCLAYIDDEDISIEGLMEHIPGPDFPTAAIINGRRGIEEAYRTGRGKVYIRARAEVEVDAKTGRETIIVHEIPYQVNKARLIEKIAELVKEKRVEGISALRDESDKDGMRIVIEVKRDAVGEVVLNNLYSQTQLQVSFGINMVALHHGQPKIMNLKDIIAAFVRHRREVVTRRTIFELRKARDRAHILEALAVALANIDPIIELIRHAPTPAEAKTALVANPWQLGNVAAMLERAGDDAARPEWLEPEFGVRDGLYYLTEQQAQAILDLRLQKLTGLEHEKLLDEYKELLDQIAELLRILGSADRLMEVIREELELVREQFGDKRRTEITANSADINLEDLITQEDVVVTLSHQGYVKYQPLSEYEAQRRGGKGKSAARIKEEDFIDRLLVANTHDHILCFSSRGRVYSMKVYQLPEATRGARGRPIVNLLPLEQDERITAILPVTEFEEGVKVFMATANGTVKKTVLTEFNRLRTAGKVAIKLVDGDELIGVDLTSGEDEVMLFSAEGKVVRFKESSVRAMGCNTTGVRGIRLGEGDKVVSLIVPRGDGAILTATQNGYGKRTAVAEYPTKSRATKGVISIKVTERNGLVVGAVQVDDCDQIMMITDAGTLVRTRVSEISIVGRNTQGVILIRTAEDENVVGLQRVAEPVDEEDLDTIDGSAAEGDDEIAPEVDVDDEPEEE

Row | Structure (SMILES) | pIC50 (DNA gyrase from E. coli) | MIC ([1]; Klebsiella pneumonia MTCC 618, read-out: MIC) | MIC ([2]; Staphylococcus aureus ATCC 29213, read-out: MIC) | MIC ([3]; Staphylococcus aureus ATCC BAA-1556 (MERSA resistant), read-out: MIC) | anti-mycobacterial activity (MIC) [4] | MIC ([5]; read-out: MIC) | MIC ([6]; Enterococcus faecium ATCC 51559 (VRE resistant), read-out: MIC) | MIC [7, 10] | MIC ([7]; MTCC443, Escherichia coli MTCC 443, read-out: MIC) | MIC ([8]; Enterococcus faecium ATCC 35667, read-out: MIC) | MIC ([9]; Bacillus subtilis MTCC 441, read-out: MIC) | MIC [1] | MIC ([2]; Staphylococcus aureus) | MIC ([3]; Staphylococcus aureus) | MIC [5] | MIC ([6]; Enterococcus faecium) | MIC ([7]; Escherichia coli, MTCC443) | MIC ([8]; Enterococcus faecium) | MIC ([9]; Bacillus subtilis)
1 | CCCCCN(C)Cc1cc(C(=O)O)ccc1Nc1ccnc(Nc2ccc3cc(C)[nH]c3c2)n1 [Example 8, 3-((methyl(pentyl)amino)methyl)-4-((2-((2-methyl-1H-indol-6-yl)amino)pyrimidin-4-yl)amino)benzoic acid] | 6.50 | 2 µg/mL (≈ 4.23 µM) | 4 µg/mL (≈ 8.46 µM) | 4 µg/mL (≈ 8.46 µM) | 8 micro-g/mL | 8 µg/mL (≈ 16.9 µM) | 4 µg/mL (≈ 8.46 µM) | 2 µg/mL | 32 µg/mL (≈ 67.7 µM) | 2 µg/mL (≈ 4.23 µM) | 2 µg/mL (≈ 4.23 µM) |  |  |  |  |  |  |  | 
2 | CN[C@H](CC(C)C)C(=O)N[C@H]1C(=O)N[C@@H](CC(N)=O)C(=O)N[C@H]2C(=O)N[C@H]3C(=O)N[C@H](C(=O)N[C@H](C(=O)O)c4cc(O)cc(O)c4-c4cc3ccc4O)[C@H](O)c3ccc(c(Cl)c3)Oc3cc2cc(c3O[C@@H]2O[C@H](CO)[C@@H](O)[C@H](O)[C@H]2O[C@H]2C[C@](C)(N)[C@H](O)[C@H](C)O2)Oc2ccc(cc2Cl)[C@H]1O [Vancomycin, reference compound] |  |  |  |  |  |  |  | >128 µg/mL |  |  |  | > 128 µg/mL | 1 µg/mL (≈ 0.69 µM) | 1 µg/mL (≈ 0.69 µM) | 1 µg/mL (≈ 0.69 µM) | > 128 µg/mL | > 128 µg/mL | 0.5 µg/mL (≈ 0.345 µM) | 0.5 µg/mL (≈ 0.345 µM)
